Laboratory results as given in patent US20240122180A1, “FUNGICIDAL HALOMETHYL KETONES AND HYDRATES AND THEIR MIXTURES” (FMC Corporation, priority 2020, published 2024).

Columns and labels:
[1] = tested on: Puccinia recondita f. sp. tritici (the causal agent of wheat leaf rust); assay: Test B: preventive spray on wheat seedlings, disease rating (100 = 100% control; * 50 ppm, ** 10 ppm, *** 250 ppm); format: in vivo; conditions: 100 = 100% disease control
Description: (§1) General protocol for preparing test suspensions for Tests A-E: the test compounds were first dissolved in acetone in an amount equal to 3% of the final volume and then suspended at the desired concentration (in ppm) in acetone and purified water (50/50 mix by volume) containing 250 ppm of the surfactant […] (polyhydric alcohol esters). The resulting test suspensions were then used in Tests A-E.
The test solution was sprayed to the point of run-off on wheat seedlings. The following day the seedlings were inoculated with a spore suspension of Puccinia recondita f. sp. tritici (the causal agent of wheat leaf rust) and incubated in a saturated atmosphere at 20° C. for 24 h, and then moved to a growth chamber at 20° C. for 6 days, after which time disease ratings were made.
(§2) Results for Tests A-E are given in Table A. In the Table, a rating of 100 indicates 100% disease control and a rating of 0 indicates no disease control (relative to the controls). An asterisk “*” or a double asterisk “**” or a triple asterisk “***” next to the rating value indicates a 50 ppm, 10 ppm and 250 ppm test suspension was used, respectively. A dash (-) indicates the compound was not tested.

[2] = tested on: Phakopsora pachyrhizi (the causal agent of Asian soybean rust); assay: Test A: preventive spray on soybean seedlings, visual disease rating (100 = 100% control; * 50 ppm, ** 10 ppm, *** 250 ppm); format: in vivo; conditions: 100 = 100% disease control
Description: as §1
The test solution was sprayed to the point of run-off on soybean seedlings. The following day the seedlings were inoculated with a spore suspension of Phakopsora pachyrhizi (the causal agent of Asian soybean rust) and incubated in a saturated atmosphere at 22° C. for 24 h, and then moved to a growth chamber at 22° C. for 8 days, after which time visual disease ratings were made.
as §2

[3] = 10 ppm test suspension, 0 = no control
[4] = Puccinia recondita, 50 ppm test suspension, 0 = no control
[5] = Phakopsora pachyrhizi, 50 ppm test suspension, 0 = no control
[6] = 50 ppm test suspension, 0 = no control
[7] = 10 ppm test suspension, wheat seedlings
[8] = 10 ppm test suspension, soybean seedlings
[9] = 50 ppm test suspension, wheat seedlings
[10] = 50 ppm test suspension, soybean seedlings

CCO/C(=C\Oc1cccc(Cn2cc(C(=O)OCC3CCC3)cn2)c1)C(F)(F)F [compound 342]
Test B disease control rating [1, 3]: 0% | Test A disease control rating [2, 3]: 100%

CCOC(=O)c1cnn(COc2cccc(OCC3(C(F)(F)F)OCCO3)c2)c1 [compound 353]
pest or weed control at 50 ppm [1, 4]: 0% | pest or weed control at 50 ppm [2, 5]: 0%

CCOC(=O)c1cnn(CCCc2ccc(OCC(O)(O)C(F)(F)F)cc2)c1 [compound 286]
Test B disease control rating [1, 3]: 55% | Test A disease control rating [2, 3]: 87%

O=C(NCC(F)F)c1cnc(Cc2ccc(OCC(O)(O)C(F)(F)F)cc2)s1 [compound 295]
Test B disease control rating [1, 6]: 80% | Test A disease control rating [2, 6]: 99%

CCCOC(=O)c1ccc(O/C=C(\OCC)C(F)(F)F)cc1 [compound 94]
Test B disease control rating [1, 7]: 0% | Test A disease control rating [2, 8]: 0%

CCOC(=O)c1ccnn1Cc1cc(C)cc(O/C=C(\OCC)C(F)(F)F)c1 [compound 462]
Test B disease control rating [1, 3]: 0% | Test A disease control rating [2, 3]: 0%

CCO/C(=C\Oc1cccc(Cn2cc(C(=O)O)cn2)c1)C(F)(F)F [compound 323]
Test B disease control rating [1, 6]: 0% | Test A disease control rating [2, 6]: 100%

CCO/C(=C\Oc1ccc(CCn2cc(C(=O)O)cn2)cc1)C(F)(F)F [compound 328]
Test B disease control rating [1, 3]: 0% | Test A disease control rating [2, 3]: 100%

C=C(C)COC(=O)c1cnn(Cc2ccc(OCC(O)(O)C(F)(F)F)cc2)c1 [compound 40]
Test B disease control rating [1, 7]: 68% | Test A disease control rating [2, 8]: 91%

CCOC(=O)c1cnn(C(C)c2ccc(OCC3(C(F)(F)F)OCCO3)cc2)c1 (racemic) [compound 26]
Test B disease control rating [1, 7]: 0% | Test A disease control rating [2, 8]: 99%

CC#CCOC(=O)c1cnn(Cc2cccc(O/C=C(\OCC)C(F)(F)F)c2)c1 [compound 300]
Test B disease control rating [1, 3]: 0% | Test A disease control rating [2, 3]: 100%

CCOC(=O)c1cn(Cc2ccc(O/C=C(\OCC)C(F)(F)F)cc2)nn1 [compound 121]
Test B disease control rating [1, 7]: 0% | Test A disease control rating [2, 8]: 100%

CCOC(=O)c1cncn1Cc1cccc(O/C=C(\OCC)C(F)(F)F)c1 [compound 447]
pest or weed control at 10 ppm ([1]; Puccinia recondita, 10 ppm test suspension, 0 = no control): 0% | pest or weed control at 10 ppm ([2]; Phakopsora pachyrhizi, 10 ppm test suspension, 0 = no control): 0%

CCCCCCOC(=O)c1cnn(Cc2ccc(OCC3(C(F)(F)F)OCCO3)cc2)c1 [compound 16]
Test B disease control rating [1, 7]: 0% | Test A disease control rating [2, 8]: 99%

O=C(NCC(F)(F)F)c1cnn(Cc2ccc(OCC3(C(F)(F)F)OCCO3)cc2)c1 [compound 197]
Test B disease control rating [1, 7]: 0% | Test A disease control rating [2, 8]: 0%

CCCCOC(=O)c1ccn(Cc2ccc(O/C=C(\OCC)C(F)(F)F)cc2)n1 [compound 356]
Test B disease control rating [1, 3]: 0% | Test A disease control rating [2, 3]: 100%

CCOC(=O)c1cnn(C(C)c2cccc(O/C=C(\OCC)C(F)(F)F)c2)c1 (stereo not drawn) [compound 304]
Test B disease control rating [1, 6]: 0% | Test A disease control rating [2, 6]: 96%

CCO/C(=C\Oc1ccc(Cn2cnc(C(=O)OC)c2)cc1)C(F)(F)F [compound 86]
Test B disease control rating [1, 7]: 0% | Test A disease control rating [2, 8]: 99%

CCOC(=COc1ccc(CN2CCC(C(=O)OC)C2)cc1)C(F)(F)F (stereo not drawn) [compound 310]
Test B disease control rating [1, 3]: 0% | Test A disease control rating [2, 3]: 100%

CC(C)C(=O)NCc1ccc(OCC2(C(F)(F)F)OCCO2)cc1 [compound 175]
Test B disease control rating [1, 7]: 0% | Test A disease control rating [2, 8]: 0%

FC(F)(F)c1nc(-c2ccc(OCC3(C(F)(F)F)OCCO3)cc2)no1 [compound 173]
Test B disease control rating [1, 7]: 0% | Test A disease control rating [2, 8]: 0%

FC(F)(F)C1(COc2ccc(Cc3ccccc3)cc2)OCCO1 [compound 192]
Test B disease control rating [1, 7]: 0% | Test A disease control rating [2, 8]: 0%

CCO/C(=C\Oc1ccc(Cn2ncnc2SC)cc1)C(F)(F)F [compound 260]
Test B disease control rating [1, 3]: 0% | Test A disease control rating [2, 3]: 0%

CCOC(=O)c1ccc2c(cnn2Cc2ccc(OCC3(C(F)(F)F)OCCO3)cc2)c1 [compound 160]
Test B disease control rating [1, 7]: 0% | Test A disease control rating [2, 8]: 13%

CCO/C(=C\Oc1ccc(CNC(=O)CC(F)(F)F)cc1)C(F)(F)F [compound 113]
Test B disease control rating [1, 7]: 0% | Test A disease control rating [2, 8]: 0%

CCCCCCOC(=O)c1cnn(Cc2ccc(OCC(O)(O)C(F)(F)F)cc2)c1 [compound 48]
Test B disease control rating [1, 9]: 91% | Test A disease control rating [2, 10]: 100%

CCOC(=O)c1cnn(Cc2ccc(O/C=C(\OCC)C(F)(F)F)c(Br)c2)c1 [compound 344]
Test B disease control rating [1, 6]: 0% | Test A disease control rating [2, 6]: 100%

CCOC(=O)c1cnn(Cc2ccc(OCC3(C(F)(F)F)OCCO3)nc2)c1 [compound 166]
Test B disease control rating [1, 7]: 95% | Test A disease control rating [2, 8]: 100%

CCOC(=COc1ccc(Cn2nccc2C(=O)OC)cc1)C(F)(F)F [compound 250]
Test B disease control rating [1, 7]: 0% | Test A disease control rating [2, 8]: 0%

CCOC(=O)C1=NOC(c2ccc(O/C=C(\OCC)C(F)(F)F)cc2)C1 (stereo not drawn) [compound 278]
Test B disease control rating [1, 6]: 0% | Test A disease control rating [2, 6]: 94%

CCO/C(=C\Oc1cccc(Cn2cc(C(=O)OCCC(F)=C(F)F)cn2)c1)C(F)(F)F [compound 349]
Test B disease control rating [1, 3]: 0% | Test A disease control rating [2, 3]: 100%

CCOC(=O)c1ccn(Cc2ccc(OCC(O)(O)C(F)(F)F)cc2)n1 [compound 233]
Test B disease control rating [1, 9]: 96% | Test A disease control rating [2, 10]: 100%

CCO/C(=C\Oc1ccc(C(=O)NC(C)C)cc1)C(F)(F)F [compound 101]
Test B disease control rating [1, 7]: 0% | Test A disease control rating [2, 8]: 0%

CCO/C(=C\Oc1ccc(C(=O)NC2CC2)cc1)C(F)(F)F [compound 100]
Test B disease control rating [1, 7]: 0% | Test A disease control rating [2, 8]: 0%

C#CCOC(=O)c1ccc(O/C=C(\OCC)C(F)(F)F)cc1 [compound 75]
Test B disease control rating [1, 7]: 0% | Test A disease control rating [2, 8]: 0%

O=C(NCC1CC1)c1cnn(Cc2ccc(OCC(O)(O)C(F)(F)F)cc2)c1 [compound 36]
Test B disease control rating [1, 7]: 0% | Test A disease control rating [2, 8]: 70%

CN(C)S(=O)(=O)c1ccc(OCC(O)(O)C(F)(F)F)cc1 [compound 34]
Test B disease control rating [1, 7]: 80% | Test A disease control rating [2, 8]: 0%

CCCO/C(=C\Oc1ccc(Cn2cc(C(=O)OCC)cn2)cc1)C(F)(F)F [compound 65]
Test B disease control rating [1, 7]: 0% | Test A disease control rating [2, 8]: 100%

CCOC(=O)c1cnn(Cc2cc(C)cc(O/C=C(\OCC)C(F)(F)F)c2)c1 [compound 406]
Test B disease control rating [1, 6]: 0% | Test A disease control rating [2, 6]: 0%

CON(Cc1ccc(OCC2(C(F)(F)F)OCCO2)cc1)C(=O)C1CC1 [compound 236]
Test B disease control rating [1, 7]: 0% | Test A disease control rating [2, 8]: 75%

CCO/C(=C\Oc1ccc(C(C)=O)cc1)C(F)(F)F [compound 79]
Test B disease control rating [1, 9]: 0% | Test A disease control rating [2, 10]: 0%

CCOC(=O)c1cnn(Cc2ccc(O/C=C(\OCC#N)C(F)(F)F)cc2)c1 [compound 400]
Test B disease control rating [1, 6]: 0% | Test A disease control rating [2, 6]: 100%

Cc1ccc(OCC2(C(F)(F)F)OCCO2)c(F)c1 [compound 442]
pest or weed control at 50 ppm [1, 4]: 0% | pest or weed control at 50 ppm [2, 5]: 0%

FC(F)(F)C1(COc2ccc(OCC3(C(F)(F)F)OCCO3)cc2)OCCO1 [compound 28]
Test B disease control rating [1, 7]: 0% | Test A disease control rating [2, 8]: 0%

CCOC(=O)c1cnn(CCCc2cccc(O/C=C(\OCC)C(F)(F)F)c2)c1 [compound 421]
Test B disease control rating [1, 3]: 0% | Test A disease control rating [2, 3]: 0%
